Where two headings read alike, the source gives them in different places.
Target: T1, off-target kinases (Homo sapiens, UniProt Q09013)
T1 sequence (Q09013 1-629): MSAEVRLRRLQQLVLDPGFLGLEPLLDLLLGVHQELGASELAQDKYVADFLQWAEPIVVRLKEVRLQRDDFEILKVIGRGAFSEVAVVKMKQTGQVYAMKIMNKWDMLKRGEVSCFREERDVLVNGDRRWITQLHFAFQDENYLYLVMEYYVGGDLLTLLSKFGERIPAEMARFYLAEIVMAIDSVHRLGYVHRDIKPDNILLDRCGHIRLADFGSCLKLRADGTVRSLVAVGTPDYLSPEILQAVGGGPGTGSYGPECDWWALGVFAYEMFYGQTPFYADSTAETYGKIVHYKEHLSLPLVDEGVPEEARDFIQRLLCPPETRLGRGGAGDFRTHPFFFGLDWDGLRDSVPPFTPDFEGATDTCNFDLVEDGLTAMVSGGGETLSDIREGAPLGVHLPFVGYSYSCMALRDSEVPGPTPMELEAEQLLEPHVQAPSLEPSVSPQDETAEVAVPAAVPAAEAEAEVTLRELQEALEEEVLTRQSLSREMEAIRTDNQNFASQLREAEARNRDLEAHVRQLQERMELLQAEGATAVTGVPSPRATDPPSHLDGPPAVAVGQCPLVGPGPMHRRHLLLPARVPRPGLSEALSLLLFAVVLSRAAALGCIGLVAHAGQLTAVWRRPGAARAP
Experiment: SelectScreen Kinase Profiling, single point inhibition and IC50 for off-target kinases
Assay type: biochemical
Conditions: DMPK, LanthaScreen Binding

**Q.** Which inhibition (read-out: % Inhibition 1) does the source give for `N#Cc1cc(-c2ncnc(Nc3ccc(N4CCN(C5COC5)CC4)cc3)n2)ccc1OC1CCOCC1` [Compound 1, 5-(4-((4-(4-(oxetan-3-yl)piperazin-1-yl)phenyl)amino)-1,3,5-triazin-2-yl)-2-((tetrahydro-2H-pyran-4-yl)oxy)benzonitrile] here?
**A.** The inhibition was 76%.

**Q.** What about the inhibition (read-out: % Inhibition 2) of the same molecule?
**A.** Its inhibition is 79%.

**Q.** And the inhibition (read-out: % Inhibition Avg)?
**A.** Its inhibition is 78%.
